Experimental data taken from patent publication US11440914B2, “Tricyclic amine compounds as CDK2 inhibitors” (Incyte Corporation, priority 2019, dated 2022).
Values belong to the molecule of their own block, whether it stands above or below them.

Tests used:
[1] = tested on: CCNE1-amplified cell lines (OVCAR3, COV318); experiment: Cell cycle analysis by FACS in CCNE1-amplified cell lines; assay type: cell-based, human; conditions: for percentage of S phase cells: 100 nM, 16 hours
Protocol: (§1) The effect of CDK4/6-inhibition in CCNE1-amplified versus CCNE1-non-amplified cell lines was evaluated.
(§2) A similar experiment was performed in a larger set of CCNE1-amplified cell lines (COV318 and OVCAR3) and CCNE1-non-amplified cell lines (COV504, OV56, and Igrov1) (FIG. 6).
To confirm the role of p16 in CDK2-sensitivity of CCNE-amplified cells, COV318 cells were treated with control or p16-specific siRNA.
(§3) Bulk DNA was stained with DAPI. Compound-treated and DMSO treated control cells were acquired with CytoFlex (Beckman Coulter) and were analyzed using the FlowJo software. For cell cycle analysis of cells with siRNA knockdown, 72 hours after siRNA transfection, cells exposed to […] for 3 hours before detection of Click-iT Alexa Fluor® 647 azide kit.

[2] = tested on: Rb phosphorylated on serine 780 in CCNE1 amplified COV318 cells; experiment: CDK2 pRb (S780) HTRF cellular assay; assay type: cell-based; conditions: Homo sapiens, overnight treatment, read-out: IC50 in p-RB S780 HTRF cellular assay
Protocol: CDK2 pRb ([…]) HTRF cellular assay enables the quantitative detection of Rb phosphorylated on […] in CCNE1 amplified COV318 cells. The assay comprised two antibodies: Europium cryptate labeled anti-Phospho-Rb […] antibody (donor) and d2 labeled anti-Rb antibody (acceptor). In brief, COV318 cells were seeded into the wells of 96-well plate at a density of 25,000 per well with 9-point, 3-fold serial diluted compounds and cultured overnight at 37 degree with 5% CO2. The final concentrations of compounds start from 3 μM. […] After 2 h of incubation at room temperature, HTRF signals were measured on the PHERAstar microplate reader (BMG Labtech), using 340 nm as excitation wavelength, a 620 nm filter for the Europium donor fluorescence, and a 665-nm filter for the acceptor fluorescence detection. HTRF signals were calculated as the HTRF ratio (ratio of fluorescence measured at 665 nm and 620 nm)×10000.

CDK2/Cyclin E1 = CDK2/Cyclin E1 (Homo sapiens (Human), UniProt P24941); experiment: CDK2/Cyclin E1 HTRF enzyme activity assay; assay type: biochemical; conditions: 1 mM ATP
Protocol: CDK2/Cyclin E1 enzyme activity assays utilize full-length human CDK2 co-expressed as N-terminal GST-tagged protein with FLAG-Cyclin E1 in a baculovirus expression system (Carna Product Number 04-165). Assays are conducted in white 384-well polystyrene plates in a final reaction volume of 8 μL. CDK2/Cyclin E1 (0.25 nM) is incubated with compounds (40 nL serially diluted in DMSO) in the presence of ATP (50 μM or 1 mM) and 50 nM ULight™-labeled eIF4E-binding protein 1 (THR37/46) peptide (PerkinElmer) in assay buffer (containing 50 mM HEPES pH 7.5, 1 mM EGTA, 10 mM MgCl2, 2 mM DTT, 0.05 mg/ml BSA, and 0.01% Tween 20) for 60 minutes at room temperature. The reactions are stopped by the addition of EDTA and Europium-labeled anti-phospho-4E-BP1 antibody (PerkinElmer), for a final concentration of 15 mM and 1.5 nM, respectively. HTRF signals are read after 1 hour at room temperature on a PHERAstar FS plate reader (BMG Labtech). Data is analyzed with IDBS XLFit and GraphPad Prism 5.0 software using a three or four parameter dose response curve to determine IC50 for each compound.

[3] = tested on: Rb phosphorylation at S780 in CCNE1-amplified cell lines (OVCAR3 and COV318); experiment: Western blot of Rb phosphorylation at S780 in CCNE1-amplified cell lines; assay type: cell-based, human; conditions: various doses, 1 or 15 hours
Protocol: (§4) The effect of CDK4/6-inhibition on Rb phosphorylation at S780 in CCNE1-amplified versus CCNE1-non-amplified cell lines was evaluated. […] One or 15 hours after treatment, the cells were harvested and total protein was extracted and analyzed by western blot (FIG. 8).
(§5) Whole cell extracts were prepared using RIPA buffer (Thermo Scientific, 89900) with a Halt Protease and Phosphatase Inhibitor Cocktail (Thermo Scientific, 78440). Protein concentration was quantified with a BCA Protein Assay Kit (Thermo Scientific, 23225) and […] of protein lysates were loaded for SDS-PAGE using precast gradient gels (Bio-Rad, Hercules, No. 456-1094). Samples were diluted in 5× Laemmli buffer (300 mM Tris-HCl pH 6.8, 10% SDS (w/v), 5% 2-mercaptoethanol, 25% glycerol (v/v), 0.1% bromophenol blue w/v) and boiled for 5 minutes. […] of proteins were separated by 8-15% SDS-PAGE and transferred onto polyvinylidene fluoride (PVDF) membranes. Unspecific binding sites on the PVDF membranes were blocked with 5% non-fat milk in TBST (20 mM Tris-HCl, pH 7.6, 137 mM NaCl, 1% Tween-20). […] Images were captured by Luminescence/Fluorescence Imaging System Odyssey CLx Imager (LI-COR).

[4] = tested on: CCNE1-non-amplified cell lines (COV504, OV56, Igrov1); experiment: Cell cycle analysis by FACS in CCNE1-non-amplified cell lines; assay type: cell-based, human
Protocol: as §1, §2, §3

[5] = tested on: Rb phosphorylation at S780 in CCNE1-non-amplified cell lines (COV504 and OV56); experiment: Western blot of Rb phosphorylation at S780 in CCNE1-non-amplified cell lines; assay type: cell-based, human; conditions: various doses, 1 or 15 hours
Protocol: as §4, §5

- IC50 (CDK2/Cyclin E1): ≤ 50 nM
Structure (SMILES): Cc1nc2c(n1C)-c1nc(N[C@H]3CCN(S(=O)(=O)c4cn(C)cn4)C[C@H]3C)ncc1CC2 [Example 28, 1,2-Dimethyl-N-((3R,4S)-3-methyl-1-((1-methyl-1H-imidazol-4-yl)sulfonyl)piperidin-4-yl)-4,5-dihydro-1H-imidazo[4,5-h]quinazolin-8-amine]

- IC50 (CDK2/Cyclin E1): ≤ 50 nM
Structure (SMILES): Cc1nc2c(n1C)-c1nc(N[C@H]3CCN(S(=O)(=O)c4cccc(N5CCN(C)CC5)n4)C[C@H]3C)ncc1CC2 [Example 29, 1,2-Dimethyl-N-((3R,4S)-3-methyl-1-((6-(4-methylpiperazin-1-yl)pyridin-2-yl)sulfonyl)piperidin-4-yl)-4,5-dihydro-1H-imidazo[4,5-h]quinazolin-8-amine]

- IC50 (CDK2/Cyclin E1): ≤ 50 nM
Structure (SMILES): Cc1nc2c(n1C)-c1nc(N[C@H]3CCN(S(=O)(=O)c4ccc(N5CC[C@@H](O)C5)nc4)C[C@H]3C)ncc1CC2 [Example 30, (R)-1-(5-(((3R,4S)-4-((1,2-Dimethyl-4,5-dihydro-1H-imidazo[4,5-h]quinazolin-8-yl)amino)-3-methylpiperidin-1-yl)sulfonyl)pyridin-2-yl)pyrrolidin-3-ol]

- IC50 (CDK2/Cyclin E1): ≤ 50 nM
Structure (SMILES): Cc1nc2c(n1C1CC1)-c1nc(N[C@H]3CCN(S(=O)(=O)c4cnn(C)c4)C[C@H]3C)ncc1CC2 [Example 32, 1-Cyclopropyl-2-methyl-N-((3R,4S)-3-methyl-1-((1-methyl-1H-pyrazol-4-yl)sulfonyl)piperidin-4-yl)-4,5-dihydro-1H-imidazo[4,5-h]quinazolin-8-amine]

The next lines start with the molecule.

Structure (SMILES): C[C@@]1(O)CCC[C@H]1n1c(=O)ccc2cnc(NC3CCN(S(C)(=O)=O)CC3)nc21 [Compound A, 8-((1R,2R)-2-hydroxy-2-methylcyclopentyl)-2-((1-(methylsulfonyl)piperidin-4-yl)amino)pyrido[2,3-d]pyrimidin-7(8H)-one]
- percentage of S phase cells ([1]; COV318, control siRNA): significantly decreased
- percentage of S phase cells ([1]; COV318, p16 knocked down by siRNA, vs DMSO): not significantly decreased
- IC50 [2]: 37 nM

Structure (SMILES): CS(=O)(=O)N1CCC(Nc2ncc3c(n2)-c2c(ncn2C2CC2)CO3)CC1 [Example 26, 1-Cyclopropyl-N-(1-(methylsulfonyl)piperidin-4-yl)-1,4-dihydroimidazo[4′,5′:4,5]pyrano[3,2-d]pyrimidin-8-amine]
- IC50 (CDK2/Cyclin E1): ≤ 50 nM

Structure (SMILES): Cc1nc2c(n1C(C)C)-c1nc(NC3CCN(S(C)(=O)=O)CC3)ncc1CC2 [Example 27, 1-Isopropyl-2-methyl-N-(1-(methylsulfonyl)piperidin-4-yl)-4,5-dihydro-1H-imidazo[4,5-h]quinazolin-8-amine]
- IC50 (CDK2/Cyclin E1): ≤ 50 nM

Structure (SMILES): Cc1nc2c(n1C1CC1)-c1nc(N[C@H]3CCN(S(=O)(=O)c4cn(C)cn4)C[C@H]3C)ncc1CC2 [Example 31, 1-Cyclopropyl-2-methyl-N-((3R,4S)-3-methyl-1-((1-methyl-1H-imidazol-4-yl)sulfonyl)piperidin-4-yl)-4,5-dihydro-1H-imidazo[4,5-h]quinazolin-8-amine]
- IC50 (CDK2/Cyclin E1): ≤ 50 nM

Structure (SMILES): CC(=O)c1c(C)c2cnc(Nc3ccc(N4CCNCC4)cn3)nc2n(C2CCCC2)c1=O [palbociclib]
- percentage of cells at the S phase as compared to DMSO ([1]; COV318 and OVCAR3, 16 hours after treatment): not significantly different
- Rb phosphorylation at S780 [3]: not in CCNE1-amplified cell lines
- percentage of cells at the S phase as compared to DMSO ([4]; COV504, OV56, Igrov1, 16 hours after treatment): decreased in CCNE1-non-amplified cell lines in a dose-dependent fashion
- proliferation (cell cycle analysis by FACS) ([4]; COV504 cells, 16 hours, increasing concentrations): dose-dependent inhibition of the proliferation
- Rb phosphorylation at S780 [5]: blocked Rb phosphorylation
- IC50 [2]: > 3000 nM
